Results on three molecules are retold here after patent US20160136197A1, “Pharmaceutical Compositions Comprising a GPG Oligodeoxynucleotide and Cyclic Di-GMP” (INTERVET INTERNATIONAL B.V., priority 2013, published 2016).

The subject of data set [1] is Mouse bone marrow dendritic cells. Put plainly: Type-I IFN production by bone marrow dendritic cells, bioassay using L929 ISRE reporter cells. Format: cell-based. The following applies: overnight incubation of 1.2×10^5 DCs; CpG 1 μg/ml, c-GMP 10 μg/ml, c-di-GMP 10 μg/ml. The method, then: (§1) Mouse bone marrow dendritic cells were cultured with granulocyte-macrophage colony-stimulating factor (GM-CSF) and harvested at day 7 of culture. 1.2×10^5 cells were exposed during overnight incubation to the following immunopotentiators: CpG 1668 1 μg/ml, c-GMP 10 μg/ml, c-di-GMP 10 μg/ml. Next, supernatant was carefully harvested and IL12 or type-I IFN production was determined. For IL12 an ELISA method was used according to the manufacturer's instructions (BD Biosciences). Type-I IFN was determined by a standard bioassay using L929 ISRE reporter cells.
(§2) Kaplan Meier survival curves were analyzed using a log rank test. Cytokine data was analyzed using ANOVA with a post-hoc Bonferroni test.
FIG. 2. Synergistic type I IFN production by DCs upon combined treatment with c-di-GMP and CpG. Mouse bone marrow dendritic cells were cultured with GM-CSF and harvested at day 7 of culture. 1.2×10^5 cells were exposed during overnight incubation to the indicated immmunopotentiators or combinations of immunopotentiators: CpG 1 μg/ml, c-GMP 10 μg/ml, c-di-GMP 10 μg/ml. Next, supernatant was harvested and type I IFN production was determined by a standard bioassay using L929 ISRE cells. Results are shown as means with sem, *=p<0.001 vs. all other bars. Similar results were obtained in three independent experiments.

The test system is the same in data set [2]. Put plainly: IL12 production by bone marrow dendritic cells, ELISA. Format: cell-based. The conditions noted are these: overnight incubation of 1.2×10^5 DCs; CpG 1 μg/ml, c-GMP 10 μg/ml, c-di-GMP 10 μg/ml. On the procedure:
as §1, §2
FIG. 3. Synergistic IL12 production by DCs upon combined treatment with c-di-GMP and CpG. Mouse bone marrow dendritic cells were cultured with GM-CSF and harvested at day 7 of culture. 1.2×10^5 cells were exposed during overnight incubation to the indicated immunopotentiators: CpG 1 μg/ml, c-GMP 10 μg/ml, c-di-GMP 10 μg/ml. Next, supernatant was harvested and IL12 production was determined by standard ELISA methods. Results are shown as means with sem, *=p<0.001. Similar results were obtained in three independent experiments.

The subject of data set [3] is B16F10 melanoma cells. As to the kind of experiment: Cryo ablation of established B16F10 tumors plus peri-tumoral immunopotentiator, re-challenge after 40 days, Kaplan-Meier survival. It counts as in vivo, C57BL/6n mice. The conditions noted are these: cryo ablation combined with immunopotentiator; for survival rate after 60 days: 30 μg p.t. within 30 min. after ablation, re-challenge with 15*10^3 B16F10 cells s.c. 40 days after ablation; for protection from tumor outgrowth (re-challenge, Kaplan-Meier): re-challenge 40 days later, result in words. The method, then:
C57BL/6n mice (6-8 weeks old) were purchased from Charles River Wiga (Sulzfeld, Germany) and maintained under specific pathogen-free barrier conditions at the Central Animal Laboratory (Nijmegen, The Netherlands). Drinking water and standard laboratory food pellets were provided ad libitum and mice were allowed to settle for at least 1 week before random assignment into specific treatment groups. The experiments were performed according to the guidelines for animal care of the Nijmegen Animal Experiments Committee.
The murine melanoma cell line B16F10 (ATCC) was cultured in complete medium (MEM, 5% fetal bovine serum (Greiner Bio-one), 100 U/ml penicillin G sodium and 100 μg/ml streptomycin (Pen/Strep), MEM sodium pyruvate (1 mM), NaHCO3, MEM vitamins, MEM non-essential amino acids (all from Gibco), 20 μM β-mercaptoethanol (β-ME)).
B16F10 melanoma cells were suspended in a mixture of PBS and Matrigel (2:1), and 0.5*10^6 cells in a total volume of 50 μl were injected s.c. at the right femur. When tumor diameters measured between 6-8 mm (generally at day 9-10) they were randomly assigned to treatment groups. Cryo ablation (Cryo) was performed under isoflurane/O2/N2O anesthesia using a liquid nitrogen cryo ablation system (CS76, Frigitronics, Shelton, Conn.) of which the tip is cooled by a continuous flow of circulating liquid nitrogen. During 2 treatment cycles of freezing and thawing the tumor was macroscopically frozen, while leaving surrounding healthy tissue intact. To monitor the induction of long-lasting tumor protection, mice were re-challenged with 15*10^3 B16F10 cells 40 days after cryo ablation. Re-challenges were injected in 100 μl PBS s.c. on the right flank. Mice were sacrificed when tumor volume exceeded 1000 mm^3 or when tumors brake through the skin barrier.
CpG 1668 (‘5-[…]-3’) with total phosphorothioate-modified backbone was purchased from Sigma Genosys (Haverhill, UK). C-di-GMP was synthesized as described by Spehr V, Warrass R, Höcherl K, Ilg T., in Appl. Biochem. Biotechnol. 2011 Oct;165(3-4):761-75. CpG and/or C-di-GMP were peri-tumorally injected in PBS (p.t., 30 μg divided over 2 injections of 20 μl lining the ablated tumor). All injections were done within 30 min. after ablation.
as §2
FIG. 1. Anti-tumor memory response following ablation combined with C-di-GMP and CpG. Established B16F10 tumors growing subcutaneously on the right femur were treated with cryo ablation alone, or combined with the indicated immunopotentiators Immunopotentiators ([…]) were injected in 40 μl PBS in the peri-tumoral area following the ablation. […]

Data set [4] deals with human colon cancer cell. The conditions noted are these: in vitro; cited from earlier work.

As for “5-TCCATGACGTTCCTGATGCT-3 (DNA, all phosphorothioate, methylation of C not given here) [CpG 1668, CpG ODN 20-mer, TLR9 agonist, purchased from Sigma Genosys]”, in data set [1], the “type I IFN production (in words)” value is “no IFN or only modest amounts of IFN”. In addition, in data set [2], the “IL12 production (in words)” value is listed as “modest level of IL12 production”. In data set [3], the “survival rate after 60 days” value is “approx. 50%” and the “protection from tumor outgrowth (re-challenge, Kaplan-Meier)” value is reported as “increased protection from tumor outgrowth”.

Take `Nc1nc2c(ncn2[C@@H]2O[C@@H]3COP(=O)(O)O[C@H]3[C@H]2O)c(=O)[nH]1` [c-GMP]: the “type I IFN production (in words)” value in data set [1] was “no IFN or only modest amounts of IFN”. Further, the “IL12 production (in words)” value in data set [2] is reported as “do not produce IL12”.

As to `Nc1nc2c(ncn2C2OC3COP(=O)(O)OC4C(COP(=O)(O)OC3C2O)OC(n2cnc3c(=O)[nH]c(N)nc32)C4O)c(=O)[nH]1` (centres unmarked) [c-di-GMP, 3′,5′-cyclic diguanylic acid], the “type I IFN production” value in data set [1] is less than 50 U/ml. Further, the “IL12 production (in words)” value in data set [2] is “do not produce IL12”. Moreover, in data set [3], the “survival rate after 60 days” value is reported as “approx. 50%” and the “protection from tumor outgrowth (re-challenge, Kaplan-Meier)” value is recorded as “increased protection from tumor outgrowth”. Also, the “effect on basal and GF-stimulated cancer cell proliferation” value in data set [4] was “inhibitory effect”.
